Laboratory results published in patent publication US9527896B2, “Stabilized p53 peptides and uses thereof” (DANA-FARBER CANCER INSTITUTE, INC., priority 2007, dated 2016).
Where two headings read alike, the source gives them in different places. Bridge positions count the residues as written; N and C are the ends. Square brackets hold non-standard residues; d marks the D form. Peptide text beside a SMILES is read from it. R8 = C=CCCCCCC[C@@](C)(N)C(=O)O; S5 = C=CCCC[C@](C)(N)C(=O)O; βAla = NCCC(=O)O

Tests used:
[1] = Ex vivo protease stability in serum; assay type: in vitro ADME, mouse
Experimental: FIG. 5 To determine whether SAH-p53 peptides have increased proteolytic stability, the wild type p5314-29 peptide and SAH-p53-4 were exposed to serum ex vivo.
To assess the protease stability of the peptides, fluoresceinated peptides (2.5 μg) were incubated with fresh mouse serum (20 μL) at 37° C. for 0-24 hours. The level of intact fluoresceinated compound was determined by flash freezing the serum specimens in liquid nitrogen, lyophilization, extraction in 1:1 CH3CN:H2O containing 0.1% TFA, followed by HPLC-based quantitation using fluorescence detection at excitation/emission settings of 495/530 nm.

HDM217-125 = molecular target: T1, HDM217-125 (Homo sapiens, UniProt Q00987); assay: Fluorescence polarization binding assay, FITC-peptides and HDM217-125; settings: FITC-labeled derivatives
T1 construct: plasmid encoding HDM217-125 with an N-terminal hexahistidine tag; hexahistidine tag (N, cleaved yes); thrombin cleavage site (N, cleaved yes); made in house; host or cells: Escherichia coli BL21 (DE3)
Experimental: (§1) FIG. 10 Fluorescence polarization binding assay of stapled peptides. Fluoresceinated peptides (5 nM) were incubated with recombinant HDM217-125 (25 pM-10 μM) at room temperature. Binding activity was measured by fluorescence polarization, and Kd values were obtained by […].
as §1, with “A fluorescence” for “FIG. 10 Fluorescence”, “assay was used to assess binding” for “assay”, “peptides to HDM217-125.” for “stapled peptides.”, “KD” for “Kd”
Purified HDM217-125 was prepared as follows. […]
and a thrombin cleavage site were cultured in kanamycin- and chloramphenicol-containing Luria Broth and induced with 0.1 mM isopropyl β-D-thiogalactoside (IPTG). […] Purity of the protein was assessed by SDS-PAGE, FPLC and MALDI-TOF and determined to be >90%. […]
Fluoresceinated compounds (LT=5-25 nM) were incubated with HDM217-125 in binding assay buffer (140 mM NaCl, 50 mM, Tris pH 8.0) at room temperature. Binding activity was measured by fluorescence polarization on a Perkin-Elmer LS50B luminescence spectrophotometer using a cuvette containing a stirbar or a Spectramax M5 Microplate Reader (Molecular Devices). Kd values were determined by nonlinear regression analysis of dose response curves using Prism software 4.0 Graphpad. […]

circular dichroism = settings: water; pH 7.0; 20 °C; 10-50 uM
HDM2 = molecular target: T2, HDM2 (Homo sapiens, UniProt Q00987); assay: Kd (nM)
T2 construct: Co-Immunoprecipitation of FITC-SAH-p53 Peptides and Endogenous HDM2; endogenous in cells; host or cells: SJSA-1 osteosarcoma cells
Excerpt: The patent's description of the figure: FIGS. 1A-1F Synthesis, Sequence, and Biochemical Analysis of SAH-p53 Peptides. FIG. 1A Non-natural amino acids were synthesized as described and cross-linked by ruthenium-catalyzed ring-closing olefin metathesis. […] Note: UAH-p53-8 is the “unstapled” form of SAH-p53-8.

Native HDM2 = molecular target: T3, Native HDM2 (Homo sapiens, UniProt Q00987); assay: Co-immunoprecipitation of FITC-SAH-p53 peptides and endogenous HDM2; assay type: cell-based; settings: SJSA-1 cells
T3 construct: Co-Immunoprecipitation of FITC-SAH-p53 Peptides and Endogenous HDM2; endogenous in cells; host or cells: SJSA-1 osteosarcoma cells
Experimental: FIG. 8 SJSA-1 cells were incubated with FITC-peptides followed by lysis and anti-FITC pull down.
SJSA-1 osteosarcoma cells (1×10^6) were treated with FITC-p53 peptides (15 μM) in serum-free media for 4 hours, followed by serum replacement and additional 8 hour incubation. The cells were thoroughly washed with serum-containing media and PBS and exposed to lysis buffer (50 mM Tris pH 7.6, 150 mM NaCl, 1% Triton-X100, 1 mM PMSF, 1 U mL^−1 benzonase nuclease [EMD Biosciences] and complete protease inhibitor tablet [Roche]) at room temperature. All subsequent steps were all performed at 4° C. The extracts were centrifuged, and the supernatants were incubated with protein A/G sepharose (50 μL 50% bead slurry per 0.5 mL lysatcs; Santa Cruz Biotechnology). The pre-cleared supernatants (500 μL) were collected after centrifugation, incubated with 10 μL of goat-anti-FITC antibody (AbCam) for 1.5 h followed by protein A/G sepharose for an additional 1.5 hours. The immunoprecipitation reactions were pelleted and washed three times with lysis buffer. The precipitated proteins were suspended in SDS-containing loading buffer, boiled, and the supernatants were processed by SDS-PAGE on 4-12% Bis-Tris gels (Invitrogen). The proteins were blotted into Immobilon-P membranes (Millipore). […]

SJSA-1 cells [2] = assay type: cell-based; settings: 24 h
Experimental: The cells were then exposed to a caspase-3 specific substrate (Ac-DEVD-AMC ('DEVD' disclosed as SEQ ID NO: 7)). Fluorescence as a result of cleavage was measured in a microplate reader. To determine the specificity of the activity, certain peptides were incubated alongside DEVD-CHO ('DEVD' disclosed as SEQ ID NO: 7), a substrate known to inhibit caspase-3 specifically. The effect of various peptides on caspase-3 activation was examined as follows. […] The cells were then exposed to a caspase-3 specific substrate. Fluorescence as a result of cleavage was measured in a microplate reader. To determine the specificity of the activity, certain peptides were incubated alongside DEVD-CHO ('DEVD' disclosed as SEQ ID NO: 7), a substrate known to inhibit caspase-3 specifically. […] Cell viability was assayed by addition of CellTiter-GloTM bioluminescence reagent (Promega) and reading luminescence in a Spectramax M5 microplate reader (Molecular Devices). The extent of apoptosis was measured through the detection of caspase-3 activity by exposing the cells to a caspase-3-specific substrate (Oncogene). Fluorescence as a result of substrate cleavage was measured in a Spectramax M5 microplate reader (Molecular Devices).

SJSA-1 cells [3] = system: SJSA-1 cells
Excerpt: After washing with PBS, the cells were fixed in 4% paraformaldehyde, washed with PBS, and treated with DAPI-containing (nuclear counterstain) Vectashield mounting medium (Vector), coverslipped and imaged by confocal microscopy (BioRad 1024 or Nikon E800).

SJSA-1 cells [4] = assay type: cell-based; settings: 24 h; remark: listed apart in the source
Experimental: SJSA-1 osteosarcoma cells (4×10^5 cells per well) were incubated in 96-well plates and treated with p53 peptides in serum-free media for 4 hours, followed by serum replacement and additional incubation for 20 hours. Cell viability was assayed by addition of CellTiter-Glo™ bioluminescence reagent (Promega) and reading luminescence in a Spectramax M5 microplate reader (Molecular Devices). The extent of apoptosis was measured through the detection of caspase-3 activity by exposing the cells to a caspase-3-specific substrate (Oncogene). Fluorescence as a result of substrate cleavage was measured in a Spectramax M5 microplate reader (Molecular Devices).

RKO cells = assay: Annexin V binding as an indicator of apoptosis, RKO cells; assay type: cell-based; settings: 24 hours
Excerpt: FIG. 9 Annexin V binding as an indicator of apoptosis.

T2 sequence (Q00987 whole entry, looked up): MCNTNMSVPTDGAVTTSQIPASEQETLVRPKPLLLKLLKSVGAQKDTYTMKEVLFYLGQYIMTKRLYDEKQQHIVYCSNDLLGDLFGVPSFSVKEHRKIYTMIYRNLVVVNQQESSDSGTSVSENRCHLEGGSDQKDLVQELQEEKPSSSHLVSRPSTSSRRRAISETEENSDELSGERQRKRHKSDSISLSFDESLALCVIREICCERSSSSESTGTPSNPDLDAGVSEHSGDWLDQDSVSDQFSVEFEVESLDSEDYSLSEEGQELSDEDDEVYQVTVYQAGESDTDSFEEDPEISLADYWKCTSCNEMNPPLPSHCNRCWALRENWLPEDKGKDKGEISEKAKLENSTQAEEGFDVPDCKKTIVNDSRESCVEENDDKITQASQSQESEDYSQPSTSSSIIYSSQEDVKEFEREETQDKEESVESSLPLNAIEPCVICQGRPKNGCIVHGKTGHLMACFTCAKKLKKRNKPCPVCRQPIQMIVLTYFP
T1 sequence (Q00987 17-125 limits assumed): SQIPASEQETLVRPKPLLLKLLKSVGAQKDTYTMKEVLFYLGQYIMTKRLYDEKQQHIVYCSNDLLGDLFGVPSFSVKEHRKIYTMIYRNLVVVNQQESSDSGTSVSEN
T3 sequence (Q00987 whole entry): as the sequence (Q00987 whole entry, looked up) above

Row | Compound | proteolytic stability [1] | serum half-life (t1/2) compared with unmodified wild type peptide ([1]; exposed to serum ex vivo) | HDM2 binding affinity (HDM217-125) | helicity (circular dichroism) [%] | Kd (HDM2) [nM] | co-immunoprecipitation of native HDM2 (anti-FITC pull down) (Native HDM2) | EC50 (SJSA-1 cells [2]) [nM] | cellular fluorescence (SJSA-1 cells [3]) | EC50 (SJSA-1 cells [4]) [nM] | apoptosis induction (annexin V, FACS) (RKO cells)
1 | CC(=O)NCCC(=O)N[C@@H](CC(C)C)C(=O)N[C@@H](CO)C(=O)N[C@@H](CCC(N)=O)C(=O)N[C@@H](CCC(=O)O)C(=O)N[C@H](C(=O)N[C@@H](Cc1ccccc1)C(=O)N[C@]1(C)CCCCCCC=CCCC[C@@](C)(C(=O)N[C@@H](CCC(=O)O)C(=O)N[C@@H](CC(N)=O)C(N)=O)NC(=O)[C@H](CC(C)C)NC(=O)[C@H](CC(C)C)NC(=O)[C@H](CCCCN)NC(=O)[C@H](Cc2c[nH]c3ccccc23)NC(=O)[C@H](CC(C)C)NC(=O)[C@H](CC(=O)O)NC1=O)[C@@H](C)O [SAH-p53-4] | improved proteolytic stability | almost four times longer | subnanomolar | 59 | 0.92 ± 0.11 | – | – | – | – | –
2 | FITC-SAH-p53-8: N-terminally fluoresceinated SAH-p53-8 | – | – | – | – | – | co-immunoprecipitated | – | – | – | –
3 | CC(=O)NCCC(=O)N[C@@H](CCC(N)=O)C(=O)N[C@@H](CO)C(=O)N[C@@H](CCC(N)=O)C(=O)N[C@@H](CCC(N)=O)C(=O)N[C@H](C(=O)N[C@@H](Cc1ccccc1)C(=O)N[C@]1(C)CCCCCCC=CCCC[C@@](C)(C(=O)N[C@@H](CCC(N)=O)C(=O)N[C@@H](CC(N)=O)C(N)=O)NC(=O)[C@H](CC(C)C)NC(=O)[C@H](CC(C)C)NC(=O)[C@H](CCCNC(=N)N)NC(=O)[C@H](Cc2c[nH]c3ccccc23)NC(=O)[C@H](CC(C)C)NC(=O)[C@H](CC(N)=O)NC1=O)[C@@H](C)O [SAH-p53-8] | – | – | – | 85 | 55 ± 11 | – | 5800 | Cellular fluorescence was observed | 8800 | –
4 | CC(=O)NCCC(=O)N[C@@H](CC(C)C)C(=O)N[C@@H](CO)C(=O)N[C@@H](CCC(N)=O)C(=O)N[C@@H](CCC(N)=O)C(=O)N[C@H](C(=O)N[C@@H](Cc1ccccc1)C(=O)N[C@]1(C)CCCCCCC=CCCC[C@@](C)(C(=O)N[C@@H](CCC(N)=O)C(=O)N[C@@H](CC(N)=O)C(N)=O)NC(=O)[C@H](CC(C)C)NC(=O)[C@H](CC(C)C)NC(=O)[C@H](CCCNC(=N)N)NC(=O)[C@H](Cc2c[nH]c3ccccc23)NC(=O)[C@H](CC(C)C)NC(=O)[C@H](CC(N)=O)NC1=O)[C@@H](C)O [SAH-p53-6] (Ac-[βAla]LSQQTF[R8]NLWRLL[S5]QN-NH2; staple 8-15) | – | – | – | 14 | 56 ± 11 | – | – | – | – | caused significant apoptosis
